Data reported in PMC9851200, “Multiparameter phenotypic screening for endogenous TFEB and TFE3 translocation identifies novel chemical series modulating lysosome function” (Autophagy, 2022).

Key:
Format in all cases: binding
[1] = target: kinases (KINOMEscan panel) (Homo sapiens, UniProt P00519); conditions: NEW KINOMEscan
[2] = target: kinases (KINOMEscan panel) (Homo sapiens, UniProt P00533, G719S); conditions: EGFR(G719S); NEW KINOMEscan
[3] = target: kinases (KINOMEscan panel) (Homo sapiens, UniProt P10721, T670I/V559D); conditions: NEW KINOMEscan
Chain of kinases (KINOMEscan panel) (Homo sapiens, UniProt P10721, T670I/V559D) (P10721 26-976 V559D/T670I): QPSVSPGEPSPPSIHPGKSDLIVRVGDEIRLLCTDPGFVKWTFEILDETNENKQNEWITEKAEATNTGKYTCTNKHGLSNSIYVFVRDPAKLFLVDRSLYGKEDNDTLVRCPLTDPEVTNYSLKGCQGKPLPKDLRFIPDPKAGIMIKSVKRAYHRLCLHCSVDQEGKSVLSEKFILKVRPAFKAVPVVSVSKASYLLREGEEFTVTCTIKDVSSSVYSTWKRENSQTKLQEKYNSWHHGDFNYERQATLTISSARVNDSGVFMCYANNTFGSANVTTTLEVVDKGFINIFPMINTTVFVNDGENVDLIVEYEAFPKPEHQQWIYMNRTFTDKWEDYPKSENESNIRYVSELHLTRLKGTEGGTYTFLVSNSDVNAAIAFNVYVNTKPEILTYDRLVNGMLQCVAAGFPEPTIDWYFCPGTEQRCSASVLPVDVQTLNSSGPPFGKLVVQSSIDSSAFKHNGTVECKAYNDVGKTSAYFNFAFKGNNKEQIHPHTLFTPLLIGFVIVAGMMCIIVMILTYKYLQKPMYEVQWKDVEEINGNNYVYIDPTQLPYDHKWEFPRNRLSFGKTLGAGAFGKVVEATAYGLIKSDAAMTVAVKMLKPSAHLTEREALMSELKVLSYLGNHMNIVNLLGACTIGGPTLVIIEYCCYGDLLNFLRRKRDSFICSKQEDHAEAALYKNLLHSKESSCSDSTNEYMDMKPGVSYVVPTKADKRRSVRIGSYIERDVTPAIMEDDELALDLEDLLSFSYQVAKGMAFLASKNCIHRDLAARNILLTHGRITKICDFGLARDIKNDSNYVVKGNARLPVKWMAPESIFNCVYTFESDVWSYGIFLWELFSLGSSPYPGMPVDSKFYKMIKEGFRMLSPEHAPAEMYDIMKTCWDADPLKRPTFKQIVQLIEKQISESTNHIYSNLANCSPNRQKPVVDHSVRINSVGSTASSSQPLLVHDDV

[4] = target: kinases (KINOMEscan panel) (Homo sapiens, UniProt P51617); conditions: kinase IRAK1; NEW KINOMEscan
Chain of kinases (KINOMEscan panel) (Homo sapiens, UniProt P51617) (P51617 whole entry): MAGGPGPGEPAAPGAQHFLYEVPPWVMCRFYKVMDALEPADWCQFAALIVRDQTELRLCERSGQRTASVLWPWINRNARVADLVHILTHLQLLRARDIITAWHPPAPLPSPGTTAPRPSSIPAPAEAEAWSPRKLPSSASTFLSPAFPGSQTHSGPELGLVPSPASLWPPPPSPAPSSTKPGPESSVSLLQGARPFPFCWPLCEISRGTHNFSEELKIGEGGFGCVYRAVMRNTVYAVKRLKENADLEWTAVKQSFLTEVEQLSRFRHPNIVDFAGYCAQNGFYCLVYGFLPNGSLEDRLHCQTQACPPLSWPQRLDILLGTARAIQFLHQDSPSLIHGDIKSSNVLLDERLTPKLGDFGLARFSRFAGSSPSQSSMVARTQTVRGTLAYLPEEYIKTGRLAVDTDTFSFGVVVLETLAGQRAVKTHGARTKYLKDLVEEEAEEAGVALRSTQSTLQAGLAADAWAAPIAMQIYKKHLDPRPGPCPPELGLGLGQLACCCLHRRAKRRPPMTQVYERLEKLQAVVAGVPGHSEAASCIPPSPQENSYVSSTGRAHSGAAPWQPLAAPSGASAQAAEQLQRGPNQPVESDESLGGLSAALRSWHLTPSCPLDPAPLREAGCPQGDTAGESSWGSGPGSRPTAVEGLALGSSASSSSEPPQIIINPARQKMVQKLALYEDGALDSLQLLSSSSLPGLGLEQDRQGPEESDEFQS

[5] = target: kinases (KINOMEscan panel) (Homo sapiens, UniProt Q00535); conditions: NEW KINOMEscan
Chain of kinases (KINOMEscan panel) (Homo sapiens, UniProt Q00535) (Q00535 whole entry): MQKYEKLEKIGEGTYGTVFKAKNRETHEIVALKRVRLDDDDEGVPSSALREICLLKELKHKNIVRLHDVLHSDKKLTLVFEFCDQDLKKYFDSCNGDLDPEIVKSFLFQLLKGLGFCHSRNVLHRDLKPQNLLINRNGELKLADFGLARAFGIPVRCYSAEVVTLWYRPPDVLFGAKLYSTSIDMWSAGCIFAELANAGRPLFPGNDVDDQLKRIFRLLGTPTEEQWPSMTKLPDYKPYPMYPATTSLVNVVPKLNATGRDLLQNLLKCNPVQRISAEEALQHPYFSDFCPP

[6] = target: kinases (KINOMEscan panel) (Homo sapiens, UniProt Q14012); conditions: CAMK1; NEW KINOMEscan
Chain of kinases (KINOMEscan panel) (Homo sapiens, UniProt Q14012) (Q14012 whole entry): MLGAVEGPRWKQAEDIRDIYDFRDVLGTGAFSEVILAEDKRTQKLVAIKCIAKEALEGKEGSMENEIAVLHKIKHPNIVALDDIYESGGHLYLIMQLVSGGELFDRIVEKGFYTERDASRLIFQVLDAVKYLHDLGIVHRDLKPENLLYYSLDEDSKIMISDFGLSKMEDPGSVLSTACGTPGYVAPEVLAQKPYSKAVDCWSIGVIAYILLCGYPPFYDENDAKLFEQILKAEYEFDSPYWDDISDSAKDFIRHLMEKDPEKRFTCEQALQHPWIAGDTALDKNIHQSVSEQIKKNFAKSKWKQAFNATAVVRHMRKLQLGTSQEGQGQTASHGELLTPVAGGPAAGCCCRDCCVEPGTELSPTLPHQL

[7] = target: T1, kinases (KINOMEscan panel) (Homo sapiens, UniProt Q14164)
T1 sequence (Q14164 1-716): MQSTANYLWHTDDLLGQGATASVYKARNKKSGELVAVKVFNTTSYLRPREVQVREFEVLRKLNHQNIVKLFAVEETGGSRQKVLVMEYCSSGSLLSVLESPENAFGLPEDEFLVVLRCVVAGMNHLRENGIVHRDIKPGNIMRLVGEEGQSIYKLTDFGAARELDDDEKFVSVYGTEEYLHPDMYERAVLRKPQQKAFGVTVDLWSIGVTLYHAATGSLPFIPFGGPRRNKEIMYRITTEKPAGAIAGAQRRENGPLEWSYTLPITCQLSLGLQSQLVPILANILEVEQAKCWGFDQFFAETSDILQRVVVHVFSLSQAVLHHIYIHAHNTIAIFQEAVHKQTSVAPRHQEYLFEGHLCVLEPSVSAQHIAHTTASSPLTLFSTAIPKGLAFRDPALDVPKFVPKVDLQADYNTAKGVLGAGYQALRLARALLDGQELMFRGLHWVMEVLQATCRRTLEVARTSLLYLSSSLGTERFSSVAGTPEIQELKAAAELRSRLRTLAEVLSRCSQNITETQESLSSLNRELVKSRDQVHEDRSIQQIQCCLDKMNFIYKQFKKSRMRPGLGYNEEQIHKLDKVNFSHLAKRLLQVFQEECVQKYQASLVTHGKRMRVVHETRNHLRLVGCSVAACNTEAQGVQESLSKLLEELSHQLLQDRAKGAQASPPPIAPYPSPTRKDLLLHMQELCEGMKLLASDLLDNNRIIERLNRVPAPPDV

[8] = target: T2, kinases (KINOMEscan panel) (Homo sapiens, UniProt Q8TBX8); conditions: PIP4K2C; NEW KINOMEscan
T2 sequence (Q8TBX8 1-421): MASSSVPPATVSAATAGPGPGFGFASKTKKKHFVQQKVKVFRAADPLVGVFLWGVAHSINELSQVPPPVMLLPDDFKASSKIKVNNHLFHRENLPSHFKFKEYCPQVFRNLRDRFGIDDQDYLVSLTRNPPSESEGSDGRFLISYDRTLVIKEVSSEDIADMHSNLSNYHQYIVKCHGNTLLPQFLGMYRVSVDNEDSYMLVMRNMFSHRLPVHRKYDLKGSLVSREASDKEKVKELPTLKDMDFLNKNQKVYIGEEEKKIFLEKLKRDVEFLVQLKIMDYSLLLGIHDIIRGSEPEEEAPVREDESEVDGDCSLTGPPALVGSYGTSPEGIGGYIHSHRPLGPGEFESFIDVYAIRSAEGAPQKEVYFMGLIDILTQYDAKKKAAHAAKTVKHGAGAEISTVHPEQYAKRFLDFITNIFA

[9] = target: kinases (KINOMEscan panel) (Homo sapiens, UniProt Q9HCP0); conditions: kinase CSNK1G1; NEW KINOMEscan
Chain of kinases (KINOMEscan panel) (Homo sapiens, UniProt Q9HCP0) (Q9HCP0 whole entry): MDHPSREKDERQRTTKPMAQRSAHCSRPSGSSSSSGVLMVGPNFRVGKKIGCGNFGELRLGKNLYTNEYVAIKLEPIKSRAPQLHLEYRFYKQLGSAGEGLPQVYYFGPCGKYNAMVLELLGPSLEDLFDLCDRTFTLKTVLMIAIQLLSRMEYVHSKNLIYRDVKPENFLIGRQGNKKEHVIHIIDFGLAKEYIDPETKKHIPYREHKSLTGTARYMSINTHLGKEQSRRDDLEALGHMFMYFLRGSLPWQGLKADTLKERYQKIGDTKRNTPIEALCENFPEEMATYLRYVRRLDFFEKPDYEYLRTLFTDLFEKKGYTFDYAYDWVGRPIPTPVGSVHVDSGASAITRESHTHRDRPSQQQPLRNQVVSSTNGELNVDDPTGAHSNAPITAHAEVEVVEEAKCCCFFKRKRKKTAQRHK

Chain of kinases (KINOMEscan panel) (Homo sapiens, UniProt P00519) (P00519 whole entry): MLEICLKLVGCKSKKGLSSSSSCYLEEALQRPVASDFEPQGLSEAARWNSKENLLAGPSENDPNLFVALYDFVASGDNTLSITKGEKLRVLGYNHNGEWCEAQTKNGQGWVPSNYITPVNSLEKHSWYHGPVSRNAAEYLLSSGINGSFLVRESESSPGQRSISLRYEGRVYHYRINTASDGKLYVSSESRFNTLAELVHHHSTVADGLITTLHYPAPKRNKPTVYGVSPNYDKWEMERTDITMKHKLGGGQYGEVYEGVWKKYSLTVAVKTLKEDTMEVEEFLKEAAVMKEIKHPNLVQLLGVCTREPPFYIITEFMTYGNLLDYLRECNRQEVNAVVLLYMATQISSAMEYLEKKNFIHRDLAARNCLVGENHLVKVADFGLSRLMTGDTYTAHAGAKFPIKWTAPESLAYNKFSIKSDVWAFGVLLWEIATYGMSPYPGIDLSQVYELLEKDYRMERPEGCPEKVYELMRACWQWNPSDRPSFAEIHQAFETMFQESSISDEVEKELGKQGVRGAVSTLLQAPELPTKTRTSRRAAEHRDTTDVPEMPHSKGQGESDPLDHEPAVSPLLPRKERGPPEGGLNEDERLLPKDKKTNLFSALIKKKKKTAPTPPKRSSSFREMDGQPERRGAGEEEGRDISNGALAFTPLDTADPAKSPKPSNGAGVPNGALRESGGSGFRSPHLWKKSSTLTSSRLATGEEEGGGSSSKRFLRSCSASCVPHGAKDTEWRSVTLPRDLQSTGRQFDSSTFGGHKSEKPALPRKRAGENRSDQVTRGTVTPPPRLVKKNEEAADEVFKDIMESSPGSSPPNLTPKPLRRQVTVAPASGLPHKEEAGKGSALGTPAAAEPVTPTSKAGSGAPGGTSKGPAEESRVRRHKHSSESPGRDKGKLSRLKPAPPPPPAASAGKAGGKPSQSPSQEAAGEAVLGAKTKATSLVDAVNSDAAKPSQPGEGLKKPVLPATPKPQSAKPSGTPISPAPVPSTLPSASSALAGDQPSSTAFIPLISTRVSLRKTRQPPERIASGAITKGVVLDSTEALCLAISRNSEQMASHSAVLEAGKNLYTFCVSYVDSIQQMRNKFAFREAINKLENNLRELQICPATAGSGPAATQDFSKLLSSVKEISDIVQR
Chain of kinases (KINOMEscan panel) (Homo sapiens, UniProt P00533, G719S) (P00533 25-1210 G719S): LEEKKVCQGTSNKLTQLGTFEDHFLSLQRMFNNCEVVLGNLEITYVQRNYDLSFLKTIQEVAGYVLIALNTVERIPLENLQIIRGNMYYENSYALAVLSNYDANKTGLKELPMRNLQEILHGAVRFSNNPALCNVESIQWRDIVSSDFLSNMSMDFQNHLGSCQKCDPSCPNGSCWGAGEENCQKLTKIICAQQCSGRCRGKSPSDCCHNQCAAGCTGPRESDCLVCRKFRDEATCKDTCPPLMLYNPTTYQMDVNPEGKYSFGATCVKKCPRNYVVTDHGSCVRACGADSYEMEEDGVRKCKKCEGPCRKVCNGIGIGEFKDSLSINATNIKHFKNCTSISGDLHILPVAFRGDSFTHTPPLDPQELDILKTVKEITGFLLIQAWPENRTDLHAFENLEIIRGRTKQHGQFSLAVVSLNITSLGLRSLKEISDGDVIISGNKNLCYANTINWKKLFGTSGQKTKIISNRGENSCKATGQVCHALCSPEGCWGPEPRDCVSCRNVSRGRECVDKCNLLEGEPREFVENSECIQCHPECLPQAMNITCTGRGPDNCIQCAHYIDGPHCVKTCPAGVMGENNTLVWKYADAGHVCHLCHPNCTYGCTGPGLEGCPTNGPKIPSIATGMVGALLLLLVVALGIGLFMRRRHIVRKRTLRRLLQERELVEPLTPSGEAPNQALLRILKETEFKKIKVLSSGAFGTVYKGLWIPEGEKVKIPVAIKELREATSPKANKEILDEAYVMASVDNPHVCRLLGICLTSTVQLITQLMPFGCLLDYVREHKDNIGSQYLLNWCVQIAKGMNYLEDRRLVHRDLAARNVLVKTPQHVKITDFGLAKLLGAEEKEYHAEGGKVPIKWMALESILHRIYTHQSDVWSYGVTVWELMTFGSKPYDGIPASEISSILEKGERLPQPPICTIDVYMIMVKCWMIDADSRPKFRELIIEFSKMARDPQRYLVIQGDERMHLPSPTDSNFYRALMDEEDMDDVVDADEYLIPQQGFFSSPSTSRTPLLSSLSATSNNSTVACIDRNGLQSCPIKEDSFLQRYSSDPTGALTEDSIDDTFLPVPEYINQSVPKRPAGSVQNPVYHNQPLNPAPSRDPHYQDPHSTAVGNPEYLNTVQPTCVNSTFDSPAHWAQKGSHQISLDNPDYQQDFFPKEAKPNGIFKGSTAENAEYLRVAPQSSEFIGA

Cc1cccc(-c2nc(Nc3ccc4nn(C)cc4c3)c3ccccc3n2)n1 [NK167]
KINOMEscan ABL1-nonphosphorylated [1]: 0
KINOMEscan ABL1-phosphorylated [1]: 41
KINOMEscan EGFR(G719S) [2]: 0
KINOMEscan KIT(V559D,T670I) [3]: 13
KINOMEscan IRAK1 [4]: 0
KINOMEscan CDK5 [5]: 14
KINOMEscan CAMK1 [6]: 0
KINOMEscan IKBKE/IKK-epsilon [7]: 0
KINOMEscan PIP4K2C [8]: 0
KINOMEscan CSNK1G1 [9]: 0

Cc1cccc(-c2nc(N(C)c3ccc4ncsc4c3)c3ccccc3n2)n1 [NK-161]
KINOMEscan ABL1-nonphosphorylated [1]: 0
KINOMEscan ABL1-phosphorylated [1]: 29
KINOMEscan EGFR(G719S) [2]: 0
KINOMEscan KIT(V559D,T670I) [3]: 14
KINOMEscan IRAK1 [4]: 0
KINOMEscan CDK5 [5]: 19
KINOMEscan CAMK1 [6]: 0
KINOMEscan IKBKE/IKK-epsilon [7]: 0
KINOMEscan PIP4K2C [8]: 0
KINOMEscan CSNK1G1 [9]: 0
